Measured values reported in patent publication US20260108496A1, “METHODS FOR REPROGRAMING EXHAUSTED T CELLS AND BOOSTING IMMUNE CHECKPOINT BLOCKADE THERAPY FOR CANCER” (Ohio State Innovation Foundation, priority 2022, published 2026).

Tests used:
[1] = system: LCMV-specific CD8+ T cells; format: in vivo, C57BL/6 mice; conditions: treatment followed by anti-PD-L1
[2] = system: human CD8+ T cells; assay: RNA-sequencing of human CD8+ T cells; format: cell-based
Experimental: RNA was isolated using PicoPure™ RNA Isolation Kit (Applied Biosystems) from frozen cell pellets of human CD8+ T cells that were FACS-purified from days 0 (naïve), 7, and 28. Following the kit protocol. Partek Flow was used for RNA-seq analysis. In brief, pre-alignment QC/QA analysis was performed on the FASTQ files, followed by read alignment on human whole genome hg38 using STAR. The aligned reads were quantified to the hg38 RefSeq Transcripts 98 using the Quantify to annotation model on Partek and gene counts were filtered (exclude features where maximum <50.0). Filtered gene counts were normalized using median ratio for DESeq2 analysis to measure differential gene expression among different populations of CD8+ T cells. Differentially expressed genes (DEGs) were identified for genes showing fold change ≥2 and p-value 0.05.

[3] = system: B16-F10-LCMV-GP tumor; format: in vivo, C57BL/6 mice; conditions: therapy initiated after tumor development, i.p. every 2 days, through day 17
[4] = system: human CD8+ T cells; assay: whole-genome bisulfite sequencing of human CD8+ T cells; format: cell-based
Experimental: Human CD8+ T cells were sorted on days 0 (naïve), 7, and 28, and genomic DNA was extracted and bisulfite-treated to convert unmethylated cytosine to uracil residues using the EZ DNA Methylation-Direct Kit (Zymo). DNA libraries were prepared using Swift Accel-NGS® D Methyl-Seq DNA Library Kit according to the manufacturer's protocol. The libraries were purified by the AMPureXP Beads followed by QC using Qubit method, and the purified DNA was captured on an Illumina flow cell for cluster generation. Libraries were sequenced on the NovaSeq-S2 platform following the manufacturer's protocols. Sequencing data were aligned to the Hg38 genome using BSMAP. Adapter were trimmed from FASTQ sequences (trimglore) and mapped to the hg38 genome using the BSMAP v. 2.74 software. CpGs were extracted by the methratio.py in the BSMAP package. Differential analysis of CpG methylation among the datasets was determined with a Bayesian hierarchical model to detect regional methylation differences with at least three CpG site. Differentially methylated regions (DMRs) were identified using Bioconductor package DSS and custom R scripts with a threshold of 30% change in methylation ratio and P-value <0.01 with at least 10 reads per CpG site as a cutoff.

[5] = system: P14 CD8 T cells; assay: in-vitro co-culture of P14 CD8 T cells with CT2A-gp33 tumor cells (Example 1); format: cell-based, mouse
Source text: To study their epigenetic (re)programming, we developed a novel in-vitro model of CD8 T cell exhaustion. First, we optimized conditions for in-vitro co-culture of gp33-expressing murine brain tumor cells (CT2A-gp33) and TCR transgenic gp33-specific CD8 T cells (P14 cells). We were able to enforce differentiation of anti-tumor CD8 T cells under their persistent TCR stimulation by repeated exposure to the tumor antigen and tumor-derived factors, such as TGFβ1. […] However, with prolonged exposure to the tumor antigen, the effector CD8 T cells progressively lose cytokine production and tumor killing activity (FIGS. 8A, 8B, and 8C).
To assess the impact of TGFβ1 signaling on the progression of CD8 T cells toward dysfunction, we treated co-cultures with TGFβ1 or RepSox (also known as E-616452) (2-(3-(6-Methylpyridine-2-yl)-1H-pyrazol-4-yl)-1,5-naphthyridine) as shown in the formula: […]
RepSox is a potent selective inhibitor of the TGFβ type 1 receptor (ALK5)—for 11 days after effector differentiation was complete (day 6).
We also examined the impact of BMP-2/4 signaling on RepSox-treated P14 CD8 T cells. […] Taken together, our findings indicate that TGFβ1-signaling not only accelerates the development of T cell dysfunction, but also maintains silencing of lymphoid homing markers on CD8 T cells. Importantly, our findings support the feasibility of using this novel in-vitro model as a tractable tool that can guide our in-vivo work by providing first-line mechanistic studies.

[6] = system: Dysf. CD8+ T cells; assay: reprogramming treatment of Dysf. (chronic TCR plus TGFβ1) human CD8+ T cells; format: cell-based
Experimental: On day 7, viable CD8+ T cells were FACS-purified using the Sony MA900 cell sorter. Purified CD8+ T cells were then continuously stimulated in plates coated with anti-CD3 only (5 ug/ml). Media was replenished every 2-3 days, and cells were incubated at 37 C and 5% CO2 throughout the duration of the experiment. Human TGFβ1 (5 ng/ml, Peprotech) was added to the media starting on day 7. Treatment with RepSox (25 μM) and SB4 (10 μM) (MedChemExpress LLC) or vehicle control (DMSO, ThermoFisher) were added to the media starting on day 14 or 21. Vitamin C (100 μM, MedChemExpress LLC) was added to the media starting on day 21. For the acute TCR stimulation condition, anti-CD3 was no longer added to the media starting on day 7. For recovery experiments in FIG. 16 and FIGS. 22 and 26, CD8+ T cells were rested from TCR stimulation and TGFβ1 starting on day 28 for 7-14 days in T cell media containing recombinant human IL-15 only (10 ng/ml).
(§1) On days 7, 14, 21, and 28 (and day 35 and 42 for recovery experiments), human CBMCs were stimulated with PMA/Ionomycin (Cell Stimulation Cocktail plus protein transport inhibitors, eBioscience) for 3 hours at 37° C., 5% CO2. Incubation was followed immediately by antibody intracellular staining for flow cytometry.
Human CBMCs from ex vivo stimulation experiments (acute or chronic TCR, and chronic TCR+TGFβ1) were labeled with 5(6)-Carboxyfluorescein diacetate N-succinimidyl ester (CFSE) (1 μM, Sigma) by staining in PBS for 7 minutes at room temperature, followed by quenching with 20% FBS. Proliferation was tracked on days 35 and 42 by assessing CFSE fluorescence via flow cytometry. Each peak of CFSE fluorescence signal represents one cell division cycle.

[7] = system: human CD8+ T cells; assay: BMP4 agonist treatment of human CD8+ T cells under chronic strong TCR stimulation; format: cell-based
Source text: To determine whether activating the SMAD1/5-dependent pathway attenuates a progression of chronically stimulated T cells to dysfunction, we augmented SMAD1/5-signaling using SB4 (2-[[(4-Bromophenyl)methyl]thio]benzoxazole), as shown in the formula: […]
SB4 is a selective small molecule BMP4 agonist (BMP4a) that stabilizes SMAD1/5 phosphorylation—in human CD8+ T cells under chronic strong TCR stimulation (FIG. 15a). […] CD39, CD103, and CD101 (FIG. 15e-i). Importantly. […] Taken together, these findings reveal a novel role for BMP4 signals in reversing exhaustion features and enhancing the survival of chronically stimulated CD8+ T cells.
For “Weak TCR” stimulation, 30 ng/ml of purified monoclonal anti-human CD3 (clone: OKT3; BioLegend) was continuously added onto the seeded CBMCs to provide TCR stimulation plus natural costimulation via CD80/CD86 on Fc-expressing CBMCs that survive in the first few days. For “Strong TCR” stimulation setting, flat-bottom plates were coated with purified monoclonal anti-human CD3 (5 ug/ml) and anti-human CD28 (1 ug/ml) (clone: CD28.2; BioLegend) at 4° C. overnight, then CMBCs were isolated and seeded in complete T cell medium as described above on day 0. On day 7, viable CD8+ T cells were FACS-purified using the Sony MA900 cell sorter. Purified CD8+ T cells were then continuously stimulated in plates coated with anti-CD3 only (5 ug/ml). Media was replenished every 2-3 days, and cells were incubated at 37 C and 5% CO2 throughout the duration of the experiment. Human TGFβ1 (5 ng/ml, Peprotech) was added to the media starting on day 7. […] Vitamin C (100 μM, MedChemExpress LLC) was added to the media starting on day 21. For the acute TCR stimulation condition, anti-CD3 was no longer added to the media starting on day 7. For recovery experiments in FIG. 16 and FIGS. 22 and 26, CD8+ T cells were rested from TCR stimulation and TGFβ1 starting on day 28 for 7-14 days in T cell media containing recombinant human IL-15 only (10 ng/ml).
as §1

[8] = monotherapy, in the absence of TGFβ R1 blocker

Q: `Cc1cccc(-c2n[nH]cc2-c2ccc3ncccc3n2)n1` [RepSox, 2-(3-(6-Methylpyridine-2-yl)-1H-pyrazol-4-yl)-1,5-naphthyridine] was tested. Which “dysfunctional CD8+ T cell responses during anti-PD-L1 treatment” value [1] did it give?
A: Its value is “did not improve”.

Q: And the “expression of effector function-related and memory-related genes” value ([2]; TGFBR1 blockade alone, Dysf. CD8+ T cells, day 28)?
A: The value was “restored substantial expression levels”.

Q: And the “ACVR1 and ACVR2A expression” value ([2]; normalized RNA levels, chronic stimulation)?
A: Its value is “increased expression”.

Q: What about the tumor control [3] of the same compound?
A: Its tumor control is “modest tumor control”.

Q: What about the “DNA methylation patterns in Dysf. CD8+ T cells” value ([4]; RepSox alone, day 28) of the same compound?
A: The value was “induced distinct methylation patterns”.

Q: And the “CD62L (L-selectin) expression” value ([5]; P14 CD8 T cells)?
A: Its value is “restored”.

Q: And the “levels of PD-1” value ([5]; P14 CD8 T cells)?
A: The value was “maintained high levels”.

Q: And the tumor killing activity ([5]; persistently stimulated P14 cells, treatment from day 6)?
A: The tumor killing activity was “preserved”.

Q: And the “effector function (expression of IFNγ, T-bet and Gzmb)” value ([5]; relative to Day 6-effector CD8 T cells)?
A: The value was “boosted the effector function”.

Q: And the “effector molecules (IFNγ, TNFα, CD107a, T-bet)” value ([6]; RepSox alone, day 28)?
A: Its value is “restored”.

Q: What about the “surface markers associated with terminal dysfunction (CD101, PD-1, LAG3)” value ([6]; RepSox alone, day 28) of the same compound?
A: Its value is “downregulated”.

Q: What about the effector cytokine production ([6]; sorted most dysfunctional subset (CD107a low CD11a low), RepSox 2 weeks) of the same compound?
A: The effector cytokine production was “significantly recovered”.

Q: Which results are given for `Brc1ccc(CSc2nc3ccccc3o2)cc1` [SB4, 2-[[(4-Bromophenyl)methyl]thio]benzoxazole]?
A: dysfunctional CD8+ T cell responses during anti-PD-L1 treatment [1]: did not improve; expression of genes regulating T cell co-stimulation, chemotaxis and stemness (CD28, FOSB, FCGR3A, CXCL8, POU2F2) ([2]; Reprog.II versus Reprog.I): re-activated expression; tumor control [3]: modest tumor control; DNA methylation patterns in Dysf. CD8+ T cells ([4]; combined with RepSox): more pronounced; expression of exhaustion-associated molecules (PD-1, LAG3, CD39, CD103, CD101) ([7]; day 21): reducing the expression; numbers of persistently stimulated CD8+ T cells ([7]; day 21): rescued significantly higher numbers; proliferation activity (Ki67) ([7]; day 21): without increasing; polyfunctionality ([7]; day 21, treatment day 7-21, after PMA/Ionomycin): significantly increased; expression levels of terminal dysfunction molecules ([6]; in RepSox-treated Dysf. CD8+ T cells): further reducing; effector function of Dysf. CD8+ T cells [6, 8]: not sufficient to restore; expression levels of dysfunction-related molecules (PD-1, LAG3, CD101, CD103) [6, 8]: significantly reduced; effector cytokine production ([6]; sorted most dysfunctional subset, added to RepSox): further enhanced
